According to patent publication EP2787958B1, “CHELIDONIUM MAJUS EXTRACTS AND THEIR USE IN THE TREATMENT OF SKIN DISORDERS AND PROMOTION OF SKIN REGENERATION” (priority 2011, dated 2013):
Like-named read-outs stand apart in the source and are kept apart here.

How the values were obtained:
[1] = tested on: Human keratinocytes (HEK, Human Epidermal Keratinocytes); experiment: Mitochondrial dehydrogenase activity (WST-1 formazan assay) in HEK cells; type: cell-based
[2] = tested on: HUVEC cells (Human Umbilical Vein Endothelial Cells); experiment: Mitochondrial dehydrogenase activity (WST-1 formazan assay) in HUVEC cells; type: cell-based; conditions: vascular endothelial cells
interleukin 1β (IL-1β) = experiment: Inflammatory cytokines in cell supernatant (Mosaic ELISA microarray): IL-1β; type: cell-based, Human; conditions: 24 hours
interleukin 6 (IL-6) = experiment: Inflammatory cytokines in cell supernatant (Mosaic ELISA microarray): IL-6; type: cell-based, Human; conditions: for IL-6 ng/(ml* No. of cells from photo) ± SD: 24 hours; for IL-6 production (effect in words): 1-10 µM
[3] = Anti-radical activity (decay of the DPPH radical); type: biochemical; conditions: for Anti-radical (skin protective): 24 hours
Summary of the method: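 Test substance in ethanol mixed 1:1 with 200 µM DPPH (stock concentrations), in quadruplicate. Absorbance read at 530 nm after 30 min, with vitamin C and ethanol-only controls. IC50 from variable-slope Hill regression of dose-activity curves.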

HDF cells [4] = experiment: Summary of uses and toxic effects deduced from the cell assays (Table 1); type: cell-based, Human
Summary of the method: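 HDF cells exposed to test substances at a given dosage for 24 h; uses and toxicity inferred from free-radical scavenging, mitochondrial dehydrogenase activity, IL-1β/IL-6 production (basal or induced by 100 µM H2O2), proliferation under standard growth conditions, and senescence-like morphology.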

[5] = tested on: collagen produced by HDF cells; experiment: Quantity of collagen produced by the cells (elution of Sirius Red); conditions: 1-10 µM (1 µM and 10 µM)
[6] = tested on: Human dermal fibroblasts (HDF); experiment: Mitochondrial dehydrogenase activity (WST-1 formazan assay) in HDF cells; conditions: for Revitalizing agent: 24 hours; for activity at 1 µM / activity at 10 µM: Homo sapiens, Fibroblast, read-out: % mitochondrial dehydrogenase activity ± SD
HDF cells [7] = experiment: Evaluation of cell proliferation (counting of Sirius Red stained cells in photographs); conditions: 24 hours
[8] = Dose 1 µm (coptisine: 1 pm [sic])
[9] = Dose 1 µm (coptisine: 1 pm [sic]), 24 hours

## COc1ccc2cc3[n+](cc2c1OC)CCc1cc2c(cc1-3)OCO2 [berberine]
[1]; higher doses
  mitochondrial dehydrogenase activity (effect in words): inhibit mitochondrial dehydrogenase activity
[1]; low doses
  mitochondrial dehydrogenase activity (effect in words): stimulate mitochondrial dehydrogenase activity
[2]; higher doses
  mitochondrial dehydrogenase activity (effect in words): inhibit mitochondrial dehydrogenase activity
[2]; low doses
  mitochondrial dehydrogenase activity (effect in words): stimulate mitochondrial dehydrogenase activity
Interleukin 1β (IL-1β); 1 µM, 34 ng/ml TGF-β1
  IL-1β ng/(ml* No. of cells from photo) ± SD: 138±5 ng/(ml* No. of cells from photo)
Interleukin 1β (IL-1β); 1 µM, 100 µM H2O2
  IL-1β ng/(ml* No. of cells from photo) ± SD: 178±1 ng/(ml* No. of cells from photo)
Interleukin 1β (IL-1β); 1 µM, Standard conditions
  IL-1β ng/(ml* No. of cells from photo) ± SD: 120±6 ng/(ml* No. of cells from photo)
Interleukin 1β (IL-1β); 10 µM, 34 ng/ml TGF-β1
  IL-1β ng/(ml* No. of cells from photo) ± SD: 146±4 ng/(ml* No. of cells from photo)
Interleukin 1β (IL-1β); 10 µM, 100 µM H2O2
  IL-1β ng/(ml* No. of cells from photo) ± SD: 210±16 ng/(ml* No. of cells from photo)
Interleukin 1β (IL-1β); 10 µM, Standard conditions
  IL-1β ng/(ml* No. of cells from photo) ± SD: 94±5 ng/(ml* No. of cells from photo)
Interleukin 6 (IL-6); 1 µM, 34 ng/ml TGF-β1
  IL-6 ng/(ml* No. of cells from photo) ± SD: 657±5 ng/(ml* No. of cells from photo)
Interleukin 6 (IL-6); 1 µM, 100 µM H2O2
  IL-6 ng/(ml* No. of cells from photo) ± SD: 1519±155 ng/(ml* No. of cells from photo)
Interleukin 6 (IL-6); 1 µM, Standard conditions
  IL-6 ng/(ml* No. of cells from photo) ± SD: 843±35 ng/(ml* No. of cells from photo)
Interleukin 6 (IL-6); 10 µM, 34 ng/ml TGF-β1
  IL-6 ng/(ml* No. of cells from photo) ± SD: 603±21 ng/(ml* No. of cells from photo)
Interleukin 6 (IL-6); 10 µM, 100 µM H2O2
  IL-6 ng/(ml* No. of cells from photo) ± SD: 1201±84 ng/(ml* No. of cells from photo)
Interleukin 6 (IL-6); 10 µM, Standard conditions
  IL-6 ng/(ml* No. of cells from photo) ± SD: 618±25 ng/(ml* No. of cells from photo)
Interleukin 6 (IL-6); 34 ng/ml TGF-β1
  IL-6 production (effect in words): tendency to reduce the production of IL-6 in a dose-dependent manner
Interleukin 6 (IL-6); 100 µM H2O2
  IL-6 production (effect in words): tendency to reduce the production of IL-6 in a dose-dependent manner
Interleukin 6 (IL-6); standard conditions
  IL-6 production (effect in words): tendency to reduce the production of IL-6 in a dose-dependent manner
[3]; 1 mM, 30 minutes
  % DPPH activity: 100%
[3]; [8]
  Anti-radical (skin protective): No
[3]; Dose 10 µm
  Anti-radical (skin protective): No
HDF cells [4]
  Cytotoxic: No
  Irritant: No
HDF cells [4]; [9]
  Anti-fibrotic (prevention of scar formation, also from acne): Yes (↓collagen, ↓IL-6)
  Cytoprotective (antioxidant, anti-inflammatory and anti-ageing; useful also in the treatment of acne): Yes* (↓IL-6)
  Wound-healing: No
HDF cells [4]; Dose 10 µm, 24 hours
  Anti-fibrotic (prevention of scar formation, also from acne): Yes (↓collagen, ↓IL-6)
  Cytoprotective (antioxidant, anti-inflammatory and anti-ageing; useful also in the treatment of acne): Yes* (↓IL-6)
  Cytotoxic: No
  Irritant: No
  Wound-healing: No
HDF cells [4]; exposure for 24 hours
  concentrations at which no toxic (cytotoxic and irritant) effects are shown: less than or equal to 10 µM
[5]; 34 ng/ml TGF-β1
  collagen production (effect in words): antagonizes the stimulation of collagen induced by 34 ng/ml TGF-β1
[5]; 100 µM H2O2
  collagen production (effect in words): antagonizes the inhibition of collagen production induced by H2O2
[6]; 1 and 10 µM, 18 h and 42 h, more marked at 42 h
  mitochondrial dehydrogenase activity (effect in words): increased with respect to the control
[6]; [8]
  Revitalizing agent: Yes
[6]; Dose 10 µm
  Revitalizing agent: Yes
[6]; 18 h
  activity at 1 µM: 114 ± 2.98%
  activity at 10 µM: 114 ± 10%
[6]; 42 h
  activity at 1 µM: 140 ± 8.89%
  activity at 10 µM: 132 ± 10.2%
[6]; fibroblast cells, higher doses
  mitochondrial dehydrogenase activity (effect in words): inhibit mitochondrial dehydrogenase activity
[6]; fibroblast cells, low dosage
  mitochondrial dehydrogenase activity (effect in words): stimulate mitochondrial dehydrogenase activity
HDF cells [7]; 1 µM, 34 ng/ml TGF-β1
  No. of cells from photo ± SD: 181±18
HDF cells [7]; 1 µM, 100 µM H2O2
  No. of cells from photo ± SD: 129±24
HDF cells [7]; 1 µM, Standard conditions
  No. of cells from photo ± SD: 203±11
HDF cells [7]; 10 µM, 34 ng/ml TGF-β1
  No. of cells from photo ± SD: 184±28
HDF cells [7]; 10 µM, 100 µM H2O2
  No. of cells from photo ± SD: 119±10
HDF cells [7]; 10 µM, Standard conditions
  No. of cells from photo ± SD: 176±35
